Experimental data as given in US7811797B2, “α-isomaltosylglucosaccharide-forming enzyme, process and uses of the same” (Kabushiki Kaisha Hayashibara Seibutsu Kagaku Kenkyujo, priority 2000, dated 2010).
Like-named read-outs stand apart in the source and are kept apart here.

Tests used:
[1] = test system: α-isomaltosyl-transferring enzyme; type: biochemical, Bacillus globisporus C11
Protocol: (§1) The α-isomaltosyl-transferring enzyme was assayed for enzymatic activity by dissolving panose in 100 mM acetate buffer (pH 6.0) to give a concentration of 2% (w/v) for a substrate solution, adding a 0.5 ml of an enzyme solution to 0.5 ml of the substrate solution, enzymatically reacting the mixture solution at 35° C. for 30 min, suspending the reaction mixture by boiling for 10 min, and quantifying glucose, among the cyclotetrasaccharide and glucose formed in the reaction mixture, by the glucose oxidase method. One unit activity of the α-isomaltosyl-transferring enzyme is defined as the enzyme amount that forms one micromole of glucose per minute under the above enzymatic reaction conditions. Throughout the specification, the enzymatic activity of the α-isomaltosyl-transferring enzyme means the unit(s) assayed as above.
(§2) The influence of metal ions on the activity of α-isomaltosyl-transferring enzyme was examined in the presence of 1 mM of each metal-ion according to the assay for the enzyme activity.

[2] = test system: α-isomaltosylglucosaccharide-forming enzyme; experiment: Influence of metal ions on the activity of α-isomaltosylglucosaccharide-forming enzyme (Strain C9); type: biochemical, Bacillus globisporus C9; details: for Relative activity (%): 1 mM of each metal-ion; for influence on the enzyme activity, in words: 1 mM
Protocol: (§3) One unit activity of the α-isomaltosylglucosaccharide-forming enzyme is defined as the enzyme amount that forms one micromole of maltose per minute under the above enzymatic reaction conditions. Throughout the specification, the enzymatic activity of the α-isomaltosylglucosaccharide-forming enzyme means the unit(s) assayed as above.
(§4) The influence of metal ions on the activity of α-isomaltosylglucosaccharide-forming enzyme was examined in the presence of 1 mM of each metal-ion according to the assay for the enzyme activity.

[3] = test system: α-isomaltosylglucosaccharide-forming enzyme; experiment: Influence of metal ions on the activity of α-isomaltosylglucosaccharide-forming enzyme (Strain N75); type: biochemical, Bacillus globisporus N75; details: for influence on the enzyme activity, in words: 1 mM; for Relative activity (%): 1 mM of each metal-ion
Protocol: as §3, §4

[4] = test system: α-isomaltosylglucosaccharide-forming enzyme; experiment: Influence of metal ions on the activity of α-isomaltosylglucosaccharide-forming enzyme (Strain C11); type: biochemical, Bacillus globisporus C11; details: for influence on the enzyme activity, in words: 1 mM; for Relative activity (%): 1 mM of each metal-ion
Protocol: as §3
The influence of metal ions on the activity of α-isomaltosylglucosaccharide forming enzyme was examined in the presence of 1 mM of each metal-ion according to the assay for the enzyme activity.

[5] = test system: α-isomaltosylglucosaccharide-forming enzyme; experiment: Influence of metal ions on the activity of α-isomaltosylglucosaccharide-forming enzyme (Strain A19); type: biochemical, Arthrobacter globiformis A19; details: for influence on the enzyme activity, in words: 1 mM; for Relative activity (%): 1 mM of each metal-ion
[6] = test system: α-isomaltosyl-transferring enzyme; experiment: Influence of metal ions on the activity of α-isomaltosyl-transferring enzyme (Strain N75); type: biochemical, Bacillus globisporus N75; details: for influence on the enzyme activity, in words: 1 mM; for Relative activity (%): 1 mM of each metal-ion
Protocol: as §1, §2

[7] = test system: α-isomaltosyl-transferring enzyme; experiment: Influence of metal ions on the activity of α-isomaltosyl-transferring enzyme (Strain C9); type: biochemical, Bacillus globisporus C9; details: for influence on the enzyme activity, in words: 1 mM; for Relative activity (%): 1 mM of each metal-ion
Protocol: as §1, with “above. […]” for “above.”

[8] = test system: α-isomaltosyl-transferring enzyme; experiment: Influence of metal ions on the activity of α-isomaltosyl-transferring enzyme (Strain S1); type: biochemical, Arthrobacter ramosus S1; details: for Relative activity (%): 1 mM of each metal-ion
Protocol: as §1, §2

Row | Compound | Relative activity (%) [1] [%] | influence on the enzyme activity, in words [1] | Relative activity (%) [2] [%] | influence on the enzyme activity, in words [3] | Relative activity (%) [3] [%] | influence on the enzyme activity, in words [4] | Relative activity (%) [4] [%] | influence on the enzyme activity, in words [5] | Relative activity (%) [5] [%] | influence on the enzyme activity, in words [6] | Relative activity (%) [6] [%] | influence on the enzyme activity, in words [7] | Relative activity (%) [7] [%] | Relative activity (%) [8] [%] | Relative activity (%) ([1]; 1 mM of each metal-ion) | influence on the enzyme activity, in words [2] | influence on the enzyme activity, in words ([1]; 1 mM) | influence on the enzyme activity, in words ([8]; 1 mM)
1 | O=C(O)CN(CCN(CC(=O)O)CC(=O)O)CC(=O)O [EDTA, ethylenediaminetetraacetic acid, reference compound] | 98 | not inhibited | 20 | greatly inhibited | 35 | greatly inhibited | 24 | greatly inhibited | 2 | not inhibited | 92 | not inhibited | 104 | 91 | – | – | – | –
2 | [Sr+2] [Sr^2+] | – | – | 80 | – | 85 | also inhibited | 83 | – | 102 | – | 91 | – | 101 | 101 | 93 | – | – | –
3 | [Ba+2] [Ba^2+] | – | – | 65 | – | 84 | also inhibited | 65 | – | 99 | – | 102 | – | 102 | 97 | 90 | also inhibited | – | –
4 | [Zn+2] [Zn^2+] | – | – | 92 | – | 82 | – | 91 | – | 56 | – | 75 | – | 88 | 78 | 83 | – | – | –
5 | [Hg+2] [Hg^2+] | – | – | 4 | greatly inhibited | 1 | greatly inhibited | 4 | greatly inhibited | 0 | greatly inhibited | 0.5 | greatly inhibited | 1 | 0.1 | 2 | greatly inhibited | greatly inhibited | greatly inhibited
6 | [Ca+2] [Ca^2+] | – | – | 115 | activated | 108 | activated | 109 | – | 106 | not activated | 100 | not activated | 101 | 103 | 91 | – | – | –
